Earlier results in patent US20050085446A1, “Fluoroquinolone formulations and methods of making and using the same” (priority 2003, published 2005).
Read-outs that look alike come from different tables or passages of the source.

System: bacterial strains

Molecule | MIC90 | MIC90 (generally around)
gentamicin | 10 μg/gm | –
O=C(O)c1cn(C2CC2)c2cc(N3CCNCC3)c(F)cc2c1=O [ciprofloxacin, 1-cyclopropyl-6-fluoro-1,4-dihydro-4-oxo-7-(1-piperazinyl)-3-quinolinecarboxylic acid] | – | around 0.5 μg/g
